Experimental findings from patent US20260285858A1, “GLP-1 RECEPTOR TARGETING COMPOUNDS AND USES THEREOF” (FORTVITA BIOLOGICS INC., priority 2023, published 2026) are described below.

In general, pEC50 refers to the EC50 on a negative log10 scale, so that one unit is a factor of ten. As a reminder, the AUC(0-t) is the area under the concentration-time curve up to a stated or last time point. One may read the half-life as the time needed for the level to fall by half in the phase considered. A higher half-life goes with slow loss. Usually Cmax stands for the maximum level reached in the sampled fluid or tissue. In general, bioavailability refers to dose-corrected exposure relative to a reference, in per cent. Low values mean little systemic uptake, high ones much systemic uptake.

pEC50: −log10 of the molar value.

Data set [1] has as its target T1, human GLP-1R (Homo sapiens, UniProt P43220).
T1 construct: expressed in transfected cells; host or cells: CHO-K1
Briefly: cAMP accumulation assay (Hithunter cAMP Assay) in CHO-K1 cells stably expressing human GLP-1R. The conditions noted are these: CHO-K1 cells expressing human GLP-1R; in the presence of BSA (1%); 30-minute incubation; relative EC50. It counts as cell-based. Here is the method:
CHO-K1 cell line stably expressing human GLP-1R was used to detect the cAMP levels using Hithunter cAMP Assay for small molecules platform according manufacturer's instructions (DiscoverX, Cat #90-0075SM2). […] After a 30-minute incubation at 37° C., the cAMP antibody reagent, working solution (mixing 19-parts of lysis buffer, 5-parts of substrate reagent 1, 1-part of substrate reagent 2, and 25-parts of solution D (enzyme donor-labeled cAMP)), and solution A (enzyme […]) were added and incubated at room temperature in the dark. The resulting competitive assays were measured using Spectramax i3x Multi-Mode Detection system (Molecular Devices, USA). A relative EC50 was derived by nonlinear regression analysis by fitting to a 4-parameter logistic model in GraphPad Prism 9 software.
A general note: cAMP levels reflect the balance of adenylyl cyclase and phosphodiesterase activity.

Data set [2] is described as follows: Pharmacokinetic testing in crab-eating macaques (cynomolgus monkey), IV and PO. Type of data set: in vivo. As to conditions: for pharmacokinetics compared to Orforglipron: comparison in words; for AUC(0-t) at 24 h / C0 / clearance / half-life / Cmax / bioavailability: cynomolgus monkey, plasma; for bioavailability: 2 mg/kg vs IV 0.5 mg/kg. Here is the method: Crab-eating macaques were administered the compound of the present invention via intravenous injection and oral gavage, respectively. Plasma samples were collected at various time points. The drug concentration of the test compound in the plasma tissue of the crab-eating macaques was detected using an LC-MS/MS analytical method, and a pharmacokinetic analysis was conducted.
Solvent for intravenous injection dosing formulation: […] (DMSO)+5% polyethylene glycol (PEG)-15 hydroxystearate+90% o physiological saline.
Preparation steps for the intravenous injection dosing solution: Accurately weigh the test compound and add it to the aforementioned solvent for intravenous injection dosing to prepare a solution with a final concentration of 0.25 mg/mL.
Solvent for oral dosing formulation: 5% dimethyl sulfoxide (DMSO)+5% polyethylene glycol (PEG)-15 hydroxystearate+90% physiological saline.
Preparation steps for the oral dosing solution: Accurately weigh the test compound and add it to the aforementioned solvent for oral dosing to prepare a solution or suspension with a final concentration of 0.4 mg/mL.
Intravenous injection(IV): Administered via […].
Oral (PO): Select an appropriately sized gavage needle and syringe, insert the gavage needle into the esophagus from the base of the tongue, until it is close to the cardia of the stomach, then inject the drug formulation and remove the gavage needle. When using disposable plastic gavage needles, use one per group.
Blood is collected via a cephalic vein or other suitable vein, with approximately 1 mL per sample, anticoagulated with K2-EDTA, and placed on ice after collection. After collection, blood samples are kept on ice and centrifuged to separate the plasma within 1 hour (centrifugation conditions: 2200 g, 10 minutes, 2-8° C.). Plasma samples are stored at −80° C. before analysis and the remaining plasma samples after analysis are continued to be stored at −80° C. • 4. Sample Detection Plasma concentration detection: The developed LC-MS/MS method is used to detect the compound in the plasma in this experiment. • 5. Data Analysis A non-compartmental model is used to analyze the blood concentration-time data using Phoenix® WinNonlin® (Version 7.0, Pharsight, Mountain View, CA).

T1 sequence (P43220 24-463): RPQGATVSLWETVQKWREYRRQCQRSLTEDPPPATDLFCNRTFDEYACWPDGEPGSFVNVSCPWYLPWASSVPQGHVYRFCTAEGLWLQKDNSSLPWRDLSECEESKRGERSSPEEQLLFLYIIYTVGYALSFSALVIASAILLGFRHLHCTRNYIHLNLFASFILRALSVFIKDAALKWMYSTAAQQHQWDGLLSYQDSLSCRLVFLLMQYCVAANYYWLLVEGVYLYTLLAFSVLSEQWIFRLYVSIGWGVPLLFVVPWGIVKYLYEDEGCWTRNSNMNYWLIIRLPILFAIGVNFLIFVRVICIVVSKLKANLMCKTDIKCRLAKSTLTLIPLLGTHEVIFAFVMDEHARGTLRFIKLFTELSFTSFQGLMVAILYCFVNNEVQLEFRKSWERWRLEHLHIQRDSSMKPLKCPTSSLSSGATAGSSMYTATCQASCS

Turning to `Cc1cc(-n2nc3c(c2-n2ccn(-c4ccc5c(cnn5C)c4F)c2=O)[C@H](C)N(C(=O)c2cc4cc(C5CCOCC5)ccc4n2[C@@]2(c4nnn[nH]4)[C@@H]4CN([C@H]5CC[C@H](O)CC5)C[C@@H]42)CC3)cc(C)c1F` (single isomer, unassigned) [Compound C-17], the pEC50 in data set [1] is 9.70.
As for `Cc1cc(-n2nc3c(c2-n2ccn(-c4ccc5c(cnn5C)c4F)c2=O)[C@H](C)N(C(=O)c2cc4cc(C5CCOCC5)ccc4n2[C@@]2(c4nnn[nH]4)[C@@H]4CN([C@H]5CC[C@@H](O)CC5)C[C@@H]42)CC3)cc(C)c1F` (single isomer, unassigned) [Compound C-18], the pEC50 in data set [1] was 9.22.
On to `Cc1cc(-n2nc3c(c2-n2ccn(-c4ccc5c(cnn5C)c4F)c2=O)[C@H](C)N(C(=O)c2cc4cc([C@H]5CCOC(C)(C)C5)ccc4n2[C@@]2(c4noc(=O)[nH]4)[C@@H]4CN(c5ncccn5)C[C@@H]42)CC3)cc(C)c1F` [Compound C-12, 3-[(1R,5S,6S)-6-{5-[(4S)-2,2-dimethyloxan-4-yl]-2-[(4S)-3-[3-(4-fluoro-1-methyl-1H-indazol-5-yl)-2-oxo-2,3-dihydro-1H-imidazol-1-yl]-2-(4-fluoro-3,5-dimethylphenyl)-4-methyl-2H,4H,5H,6H,7H-pyrazolo[4,3-c]pyridine-5-carbonyl]-1H-indol-1-yl}-3-(pyrimidin-2-yl)-3-azabicyclo[3.1.0]hexan-6-yl]-4,5-dihydro-1,2,4-oxadiazol-5-one], for which the “pharmacokinetics compared to Orforglipron” value in data set [2] was “longer half-life, higher exposure, lower clearance rate, and greater bioavailability”. Further, in data set [2] (IV, 0.5 mg/kg), the AUC(0-t) at 24 h was found to be 6290 ng·h/mL, the C0 was 6730 ng/mL, the clearance amounted to 1.3 mL/min/kg and the half-life was 6.3 h. Also, in data set [2] (PO, 2 mg/kg), the AUC(0-t) at 24 h came out at 6160 ng·h/mL, the Cmax is 514 ng/mL and the half-life is 5.9 h. Further, in data set [2] (PO), the bioavailability was 24.5%.
For the compound `Cc1cc(-n2nc3c(c2-n2ccn(-c4ccc5c(cnn5C)c4F)c2=O)[C@H](C)N(C(=O)c2cc4cc([C@H]5CCOC(C)(C)C5)ccc4n2[C@@]2(c4noc(=O)[nH]4)[C@@H]4CN(c5ccccn5)C[C@@H]42)CC3)cc(C)c1F` [Compound C-22, 3-[(1R,5S,6S)-6-{5-[(4S)-2,2-dimethyloxan-4-yl]-2-[(4S)-3-[3-(4-fluoro-1-methyl-1H-indazol-5-yl)-2-oxo-2,3-dihydro-1H-imidazol-1-yl]-2-(4-fluoro-3,5-dimethylphenyl)-4-methyl-2H,4H,5H,6H,7H-pyrazolo[4,3-c]pyridine-5-carbonyl]-1H-indol-1-yl}-3-(pyridin-2-yl)-3-azabicyclo[3.1.0]hexan-6-yl]-4,5-dihydro-1,2,4-oxadiazol-5-one], the “pharmacokinetics compared to Orforglipron” value in data set [2] is “longer half-life, higher exposure, lower clearance rate, and greater bioavailability”. In data set [2] (IV, 0.5 mg/kg), this compound had an AUC(0-t) at 24 h of 7560 ng·h/mL, a C0 of 3810 ng/mL, a clearance of 0.9 mL/min/kg and a half-life of 10.3 h. In data set [2] (PO, 2 mg/kg), the AUC(0-t) at 24 h worked out at 3590 ng·h/mL, the Cmax turned out to be 236 ng/mL and the half-life is 13.6 h. In data set [2] (PO), this compound registered a bioavailability of 11.9%.
Take `Cc1cc(-n2nc3c(c2-n2ccn(-c4ccc5c(cnn5C)c4F)c2=O)[C@H](C)N(C(=O)c2cc4cc([C@H]5CCOC(C)(C)C5)ccc4n2[C@@]2(c4noc(=O)[nH]4)C[C@@H]2C)CC3)cc(C)c1F` [Orforglipron, reference compound]: in data set [2] (IV, 0.5 mg/kg), the AUC(0-t) at 24 h is 1780 ng·h/mL, the C0 was found to be 1170 ng/mL, the clearance was found to be 4.6 mL/min/kg and the half-life was 3.4 h. Also, in data set [2] (PO, 2 mg/kg), the AUC(0-t) at 24 h turned out to be 453 ng·h/mL, the Cmax is 37.5 ng/mL and the half-life is 6.2 h. In data set [2] (PO), this compound displayed a bioavailability of 6.3%.
